The values that follow come from US9526795B2, “N-BOC-dendrimers and their conjugates” (Annam Biosciences, LLC, priority 2012, dated 2016).

The subject of this experiment is ovarian cancer cell lines. As to the kind of experiment: doxorubicin-dendrimer-folate uptake in ovarian cancer cells. Type of experiment: cell-based. As to conditions: FIG. 8; compared with doxorubicin and doxorubicin-(folate)1; folate-quenching correction. As to the method:
Ovarian cancer cells were purchased from ATCC (CRL-6322, ATCC American Type Culture Collection, Rockville, Md.) and were grown in Dulbecco's modified Eagle's medium (DMEM) with 10% fetal bovine serum and 100 units/mL penicillin. The cells were grown at 37° C. in 5% CO2 environment. The culture medium was removed and discarded. The cells were rinsed with Dulbecco Phosphate Buffer Solution (DPBS), Trypsin-ethylenediaminetetra-acetic acid (EDTA) solution (0.5 ml) was added, and the cells were observed under an inverted microscope to make sure that they were dispersed. Complete growth medium (6.0 to 8.0 ml) was added, and the cells were aspirated by gently pipetting. The cell suspension in appropriate aliquots was transferred to new culture plates. The cells were allowed to grow at 37° C. in 5% CO2 for 24 hours before further experiments. […]
The evaluation of doxorubicin-dendrimer-folate uptake is conducted by using a literature procedure (Kim D, Lee E S, Oh K T, Gao Z G, Bae Y H. Doxorubicin-loaded polymeric micelle overcomes multidrug resistance of cancer by double-targeting folate receptor and early endosomal pH. Small. 2008 November; 4(11):2043-50) and folate-quenching correction was adjusted based on a literature procedure (Husseini G. A., 2012. Folic Acid Quenches Doxorubicin Fluorescence. Advanced Science Letters. 7:726).

Each structure is given as a SMILES string.

Regarding `COc1cccc2c1C(=O)c1c(O)c3c(c(O)c1C2=O)C[C@@](O)(/C(CO)=N/NC(=O)CCCC(=O)NCCCOCCOCCOCCCN(CCC(=O)NCCNC(=O)CCC(NC(=O)c1ccc(NCc2cnc4c(=O)[nH]c(N)nc4n2)cc1)C(=O)O)CCC(=O)NCCNC(=O)CCC(NC(=O)c1ccc(NCc2cnc4c(=O)[nH]c(N)nc4n2)cc1)C(=O)O)C[C@H]3O[C@H]1C[C@@H](N)[C@@H](O)[C@@H](C)O1` (stereo partly shown) [doxorubicin-dendrimer-(folate)2, doxorubicin-hydrazine-glutaric acid-PEG3-dendrimer-2-folates], the “uptake by ovarian cancer cell lines” value is “superior uptake”.
